According to patent US20240174690A1, “ANNULATED 2-AMINO-3-CYANO THIOPHENES AND DERIVATIVES FOR THE TREATMENT OF CANCER” (BOEHRINGER INGELHEIM INTERNATIONAL GMBH, priority 2021, published 2024):

Legend:
[1] = Metabolic (microsomal) stability assay, human liver microsomes (HLM); assay type: in vitro ADME; settings: predicted clearance as percent of liver blood flow, 1 μM
In short: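 LC-MS/MS tracked parent disappearance at 0, 5, 15, 30 and 60 min in NADPH-initiated incubations with 1 mg/mL human microsomal protein and 1 μM compound at 37°C, pH 7.5. First-order fits gave intrinsic clearance, which was scaled up and reported as % QH. NADPH-free controls were also run.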

[2] = test system: KRAS G12C-dependent Ba/F3 cells; test: Ba/F3 proliferation assay, KRAS G12C; assay type: cell-based; settings: Mus musculus, BaF3, 72 h, AlamarBlue
In short: (§1)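 Proliferation of mutant-KRAS-driven Ba/F3 cells cultured without IL-3 is followed with AlamarBlue after compound addition. Curves are fitted from duplicate wells.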

SK-CO-1 cells = test: SK-CO-1 CTG proliferation assay (120 h) (CRC, G12V); assay type: cell-based; settings: Homo sapiens; SK-CO-1 cells (CRC, G12V), CTG 120 h
In short: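 Compound exposure lasted 120 h in KRAS G12V SK-CO-1 cells seeded overnight at 500 cells/well in 10% FCS EMEM. CellTiter-Glo RLU normalised to DMSO wells gave percent viability, and a four-parameter model fit yielded IC50.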

[3] = Plasma protein binding assay (PPB), equilibrium dialysis, 10% FCS in PBS; assay type: in vitro ADME; settings: bovine, read-out: PPB 10% FCS (% fu)
In short: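 Test compound (1-10 μmol/L) in 10% FCS in PBS was dialysed for 3-5 h at 37° C versus PBS ± dextran across a semipermeable membrane. LC-MS of both compartments after protein precipitation gave Cserum and Cbuffer, from which the unbound fraction fu was derived.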

[4] = test system: KRAS G12D-dependent Ba/F3 cells; test: Ba/F3 proliferation assay, KRAS G12D; assay type: cell-based; settings: Mus musculus, BaF3, 72 h, AlamarBlue
In short: as §1

| SMILES | HLM QH [1] | IC50 [2] | IC50 (SK-CO-1 cells) | fraction unbound [3] | IC50 [4] |
| --- | --- | --- | --- | --- | --- |
| C[C@H](Oc1cc(-n2cc3c(n2)CN(C)C3)nc(-c2noc3c2CCC[C@@]32CCCc3sc(N)c(C#N)c32)n1)[C@@H]1CCCN1C [II-174] | 39% | 103 nM | 385 nM | 0.17 | 16 nM |
| C[C@H](Oc1nc(-c2noc3c2CCC[C@@]32CCCc3sc(N)c(C#N)c32)nc(N2CCNC3(CC3)C2)c1Cl)[C@@H]1C[C@@H](F)CN1C [II-156] | 65% | 353 nM | 390 nM | 0.04 | 16 nM |
| C[C@H](Oc1cc(-n2cc3ccn([C@@H](C)c4ccccn4)c(=O)c3n2)nc(-c2noc3c2CCC[C@@]32CCCc3sc(N)c(C#N)c32)n1)[C@@H]1CCCN1C [II-205] | <24% | 19 nM | 31 nM | 0.06 | 85 nM |
| C[C@H](Oc1cc(-n2cc3c(n2)CNC3)nc(-c2noc3c2CCC[C@@]32CCCc3sc(N)c(C#N)c32)n1)[C@@H]1CCCN1C [II-168] | 62% | 62 nM | 154 nM | 0.47 | 27 nM |
| C[C@H](Oc1cc(N2CCNC3(COC3)C2)nc(-c2noc3c2CCC[C@@]32CCCc3sc(N)c(C#N)c32)n1)[C@@H]1C[C@@H](F)CN1C [II-150] | 64% | 55 nM | 325 nM | 0.13 | 3 nM |
| C[C@H](Oc1cc(-n2cc3ccn([C@H]4CCOC4)c(=O)c3n2)nc(-c2noc3c2CCC[C@@]32CCCc3sc(N)c(C#N)c32)n1)[C@@H]1CCCN1C [II-202] | <24% | 18 nM | 6 nM | 0.05 | 56 nM |
| C[C@H](Oc1cc(N2CCN(C)C3(CCOC3)C2)nc(-c2noc3c2CCC[C@@]32CCCc3sc(N)c(C#N)c32)n1)[C@@H]1C[C@@H](F)CN1C (some centres unmarked) [II-151] | 59% | 393 nM | 1360 nM | 0.24 | 53 nM |
| CC(C)[C@@H]1CN(c2cc(O[C@@H](C)[C@@H]3CCCN3C)nc(-c3noc4c3CCC[C@@]43CCCc4sc(N)c(C#N)c43)n2)CCN1 [II-166] | <24% | 386 nM | 551 nM | 0.22 | 154 nM |
| C[C@H](Oc1cc(N2CCNC3(CC3)C2)nc(-c2noc3c2CCC[C@@]32CCCc3sc(N)c(C#N)c32)n1)[C@@H]1C[C@@H](F)CN1C [II-165] | 61% | 109 nM | 529 nM | 0.16 | 3 nM |
| C[C@H](O)Cn1ncc(-c2cc(O[C@@H](C)[C@@H]3CCCN3C)nc(-c3noc4c3CCC[C@@]43CCCc4sc(N)c(C#N)c43)n2)n1 [II-134] | 34% | 41 nM | 225 nM | 0.31 | 1170 nM |
| CO[C@@H]1C[C@@H]([C@H](C)Oc2cc(N3CCN(C)C4(COC4)C3)nc(-c3noc4c3CCC[C@@]43CCCc4sc(N)c(C#N)c43)n2)N(C)C1 [II-153] | 58% | 1560 nM | 872 nM | 0.14 | 126 nM |
| C[C@H](Oc1cc(N2CCN[C@@H](C)C2)nc(-c2noc3c2CCC[C@@]32CCCc3sc(N)c(C#N)c32)n1)[C@@H]1CCCN1C [II-162] | <24% | 526 nM | 980 nM | 0.69 | 41 nM |
| CNC1CCN(c2cc(O[C@@H](C)[C@@H]3CCCN3C)nc(-c3noc4c3CCC[C@@]43CCCc4sc(N)c(C#N)c43)n2)CC1 [II-214] | <24% | 1900 nM | 5350 nM | 0.81 | 1710 nM |
| C[C@H](Oc1cc(-n2cnc(C(=O)N(C)C)c2)nc(-c2noc3c2CCC[C@@]32CCCc3sc(N)c(C#N)c32)n1)[C@@H]1CCCN1C [II-126] | 25% | 32 nM | 137 nM | 0.38 | 211 nM |
| CO[C@@H]1C[C@@H]([C@H](C)Oc2cc(N3CCN(C)C4(CC4)C3)nc(-c3noc4c3CCC[C@@]43CCCc4sc(N)c(C#N)c43)n2)N(C)C1 [II-152] | 58% | 1290 nM | 955 nM | 0.08 | 68 nM |
| C[C@H](Oc1cc(N2CCNC[C@@]23CCOC3)nc(-c2onc3c2CCC[C@@]32CCCc3sc(N)c(C#N)c32)n1)[C@@H]1CCCN1C [I-13] | <24% | 1540 nM | 2160 nM | 0.21 | 49 nM |
| C[C@H](Oc1cc(N2C[C@H](C)N(C)[C@@H](C)C2)nc(-c2noc3c2CCC[C@@]32CCCc3sc(N)c(C#N)c32)n1)[C@@H]1CCCN1C [II-173] | <24% | 296 nM | 805 nM | 0.41 | 51 nM |
| C[C@H](Oc1nc(-c2noc3c2CCC[C@@]32CCCc3sc(N)c(C#N)c32)nc(N2C[C@H](C)NC3(CC3)C2)c1F)[C@@H]1C[C@@H](F)CN1C [II-157] | 69% | 244 nM | 339 nM | 0.03 | 17 nM |
| C[C@H](Oc1cc(N2CCN(C)C3(CC3)C2)nc(-c2noc3c2CCC[C@@]32CCCc3sc(N)c(C#N)c32)n1)[C@@H]1C[C@@H](F)CN1C [II-149] | 45% | 333 nM | 1980 nM | 0.17 | 18 nM |
| C[C@H](Oc1cc(N2CC3COCC(C2)N3)nc(-c2noc3c2CCC[C@@]32CCCc3sc(N)c(C#N)c32)n1)[C@@H]1CCCN1C [II-160] | 31% | 1720 nM | 6850 nM | 0.53 | 429 nM |

Now those with a lower IC50 [2], led by results:

| HLM QH [1] | IC50 [2] | IC50 (SK-CO-1 cells) | fraction unbound [3] | IC50 [4] | SMILES |
| --- | --- | --- | --- | --- | --- |
| 35% | 5 nM | 9 nM | 0.13 | 16 nM | CC(C)NC(=O)Cc1ccn(-c2cc(O[C@@H](C)[C@@H]3CCCN3C)nc(-c3noc4c3CCC[C@@]43CCCc4sc(N)c(C#N)c43)n2)n1 [II-182] |
| <24% | 6 nM | 12 nM | 0.04 | 59 nM | C[C@H](Oc1cc(-n2cc3ccn([C@@H]4CCOC4)c(=O)c3n2)nc(-c2noc3c2CCC[C@@]32CCCc3sc(N)c(C#N)c32)n1)[C@@H]1CCCN1C [II-203] |
| 57% | 5 nM | 9 nM | 0.18 | 3 nM | C[C@H](Oc1cc(N2CCOC2=O)nc(-c2noc3c2CCC[C@@]32CCCc3sc(N)c(C#N)c32)n1)[C@@H]1CCCN1C [II-143] |
| 63% | 1 nM | 3 nM | 0.06 | 4 nM | CO[C@H]1CCN(C)[C@@H]1[C@H](C)Oc1cc(-n2ccc(C(=O)N[C@H]3CCOC3)n2)nc(-c2noc3c2CCC[C@@]32CCCc3sc(N)c(C#N)c32)n1 [II-198] |
| <24% | 2 nM | 3 nM | 0.02 | 23 nM | C[C@H](Oc1cc(-n2ccc(-c3cn(C4CCOCC4)nn3)n2)nc(-c2noc3c2CCC[C@@]32CCCc3sc(N)c(C#N)c32)n1)[C@@H]1CCCN1C [II-210] |
| 30% | 4 nM | 11 nM | 0.08 | 22 nM | C[C@H](Oc1cc(-n2ccc(C(=O)N(C)C3COC3)n2)nc(-c2noc3c2CCC[C@@]32CCCc3sc(N)c(C#N)c32)n1)[C@@H]1CCCN1C [II-194] |
| 32% | 3 nM | 3 nM | 0.03 | 11 nM | C[C@H](NC(=O)c1ccn(-c2cc(O[C@@H](C)[C@@H]3CCCN3C)nc(-c3noc4c3CCC[C@@]43CCCc4sc(N)c(C#N)c43)n2)n1)c1ccccn1 [II-191] |
| <24% | 13 nM | 90 nM | 0.08 | 109 nM | C[C@H](Oc1cc(-c2ccn([C@H]3CCOC3)n2)nc(-c2noc3c2CCC[C@@]32CCCc3sc(N)c(C#N)c32)n1)[C@@H]1CCCN1C [II-127] |
| 44% | 2 nM | 4 nM | 0.24 | 14 nM | COCCNC(=O)c1ccn(-c2cc(O[C@@H](C)[C@@H]3CCCN3C)nc(-c3noc4c3CCC[C@@]43CCCc4sc(N)c(C#N)c43)n2)n1 [II-195] |
| <24% | 7 nM | 11 nM | 0.05 | 63 nM | C[C@H](Oc1cc(-n2cc3ccn(C4CCOCC4)c(=O)c3n2)nc(-c2noc3c2CCC[C@@]32CCCc3sc(N)c(C#N)c32)n1)[C@@H]1CCCN1C [II-206] |
| <24% | 9 nM | 45 nM | 0.16 | 28 nM | C[C@H](Oc1cc(-n2ccc(C3(O)COC3)n2)nc(-c2noc3c2CCC[C@@]32CCCc3sc(N)c(C#N)c32)n1)[C@@H]1CCCN1C [II-189] |
